Experimental data reported in article PMC8861431, “Tissue Pharmacokinetic Properties and Bystander Potential of Hypoxia-Activated Prodrug CP-506 by Agent-Based Modelling” (Frontiers in Pharmacology, 2022).
Where “and” joins values, the source holds several entries; their conditions need not be identical. Identical values can stand only once.

Assays:
[1] = test system: POR-R cell line (POR-overexpressing HCT-116); assay: Monolayer clonogenic assay (with monolayer ABM fit); type: cell-based, human; details: for k d M: kill probability rate constant in monolayer cultures: fitted by monolayer ABM to clonogenic survival under anoxia, set to zero for the prodrug, same kd assumed for metabolites
Description: (§1) Cells (4.8 x 10^5 cells) were seeded with 2 ml culture medium into 6-well plates and left to attach for 2 h in a humidified 37°C incubator. Compounds were then prepared in culture medium and added in a 500 µl volume to each well. Plates were returned to a humidified 37°C incubator for the duration of the drug exposure (4 h). Aerobic and anoxic experiments were performed as described above. Plates were then removed from the anaerobic chamber and processed alongside the aerobic cultures. Cells were detached from monolayer by trypsinisation and plated at serial dilutions in 6-well plates. Cells were left to grow in a standard 37°C incubator for 10 days until the controls formed discrete colonies comprised of at least 50 cells. Colonies were visualized by staining with methylene blue (2 g/L in 50% aqueous ethanol) for 30 min. The number of colonies with at least 50 cells was manually counted to determine the plating efficiency. The surviving fraction was determined as the ratio of plating efficiency of treated cells to that of the controls.
(§2) An agent-based model (ABM) employing a one-dimensional approximation for monolayers was used to develop a cellular PK model, as described in further detail elsewhere ([Hong et al., 2018b]; [Mao et al., 2018]). The mathematical framework assumes that solute concentrations in the medium are dependent only on the depth (on the z coordinate) and not the lateral position (x,y) so that all cells are exposed to the same concentration of nutrients and drugs within the monolayer culture. Moreover, all cells have the same rate of metabolism and volume growth at any instance with variability allowed in cell volume, rate of cell division and cell death. Monolayer ABM simulations were performed on a desktop Windows PC (Intel core I7 processor) from a Qt (Qt Company, https://www.qt.io/) graphical user interface passing parameters to a DLL built with Fortran95. The monolayer ABM uses a finite difference method to solve reaction-diffusion equations for each compound (N) in the medium and cells. Parameters for the cellular uptake and metabolism were fitted to the concentration-time profiles of CP-506 and its metabolites in monolayer cultures of POR-R cells using a linear (first order) cell transport and metabolism model. Terms for the extracellular instability of CP-506 and its metabolites were set at their respective values in media stability studies, and media diffusion coefficients were estimated from the support membrane diffusion coefficients described below. Experimental data describing the kinetics of CP-506 uptake under aerobic conditions was fitted by adjusting the permeability coefficients kin and kout for each compound. These values were fixed for anoxic experiments to allow for parameter estimation of the rate of intracellular CP-506 metabolism (kmet0) as well as the intracellular/extracellular partitioning ratio (kin and kout) and metabolic instability (kmet0) for its cytotoxic metabolites.
(§3) The spheroid ABM is described in further detail elsewhere ([Hong et al., 2018b]; [Mao et al., 2018]). The model employs two 3D grids and two solvers, a coarse grid represents the culture medium and is embedded with a much finer grid that represents the spheroid in a small cubic region at the bottom of the well. The spheroid grows in a specified volume and depth of unstirred medium containing dissolved oxygen. The geometry of the model is lattice-based, in which cells occupy cubic sites on a regular 3D lattice and grow in volume at a rate dependent on the local oxygen concentration. Autonomous cell mobility and cell-cell forces are not simulated. Cell motion occurs only as a result of cell division. Cells divide when the volume reaches a pre-set value (Vdiv) and the resultant daughter cell occupies an adjacent empty lattice site. […] The oxygen concentration at the air-medium boundary is defined by the gas phase of the culture environment. […]

[2] = test system: PORko-G cell line (POR-knockout HCT-116); assay: as above; type: cell-based, human
Description: as §1, §2, §3

[3] = test system: HCT-116 cells (PORko-G, HCT-116 WT, POR-R); assay: Cellular metabolism assay (LC-MS/MS of reduced metabolites); type: in vitro ADME, human; details: for Metabolite concentration, fold higher in POR-R cells than HCT-116 WT cells / Metabolite concentration, fold lower in PORko-G cells than HCT-116 WT cells: after 1 h treatment with 100 µM CP-506, anoxic
Description: Aerobic and anoxic conditions were achieved as described above. Cells (5 x 10^5 per well) were seeded with 350 µl medium in duplicate into 24-well plates and left to attach for 2 h in a humidified 37°C incubator. A working solution of CP-506 was prepared in culture medium to achieve a 100 µM concentration in each well after the addition of a 500 µl volume. Plates were exposed to drug for 1 h in a humidified 37°C incubator. Metabolism was then halted by the addition of two-volumes of ice-cold acetonitrile containing 2 µM of internal standard for each analyte. Samples were stored at −80°C until LC-MS/MS analysis.
The LC system for tandem MS consisted of an Agilent 1200 autosampler (4°C) and binary pump, a 3.0 × 50 mm, 1.8-micron Zorbax SB-C18 column (Agilent; PN: 827975-302) and 2.1 × 7 mm guard column (Alltech, IL) maintained at 35°C, at a pressure of <400 bar and flow rate of 0.3 ml/min. The mobile phase comprised a gradient of 0.01% formic acid in 80% acetonitrile - 20% water, v/v (solvent A), and 0.01% formic acid in water (solvent B). Initial mobile phase composition was 20% solvent A and 80% solvent B, increasing to 60% A (0–3 min) then 80% A (3–5.45 min), returning to initial conditions (5.5–6 min). Post-run time was 1 min, and the total run time was […]. Mass spectrometric detection was carried out using an Agilent 6410 triple quadrupole mass spectrometer equipped with a multimode ionization (MMI) source. The mass spectrometer was operated in electrospray positive ionization mode using multiple reaction monitoring (MRM), with Q1 & Q3 set to unit resolution ([…]). The electrospray ionization parameters, optimized for the parent molecular ion ([M+H]+) abundance were: drying gas temperature 325°C, vaporiser temperature 150°C, drying gas flow 5 L/min, nebuliser pressure 50 psi, capillary voltage 1.8 kV, Delta EMV 300 V. Ultra-pure nitrogen was used as collision gas. The divert valve feature of the Agilent 6410 triple quadrupole mass spectrometer was utilised to prevent the eluate from entering the ionisation source chamber during the first 0.5 min of each run. For CP-506 samples, positively charged ions representing the [M+H]+ for CP-506 and CP-506-D8 were collisionally dissociated to form specific product ions which were monitored in MS2 (unit resolution). The MRM transition, ionization mode, collision energy, dwell time, fragmentor voltage and retention time for all compounds is provided in Supplementary Table S2. Agilent MassHunter software (v.4.04.00) was used for data acquisition and chromatographic peak integration.

[4] = anoxia, estimated from clonogenic survival by ABM

With `CCN1CCN(C(=O)c2cc(N(CCBr)CCOS(C)(=O)=O)c(S(C)(=O)=O)cc2NO)CC1` [CP-506H, 2-((2-bromoethyl)(5-(4-ethylpiperazine-1-carbonyl)-4-(hydroxyamino)-2-(methylsulfonyl)phenyl)amino)ethyl methanesulfonate] the “k d M: kill probability rate constant in monolayer cultures” value (“k d M: kill probability rate constant” for short) [1] was 0.01, the “Target k met0: rate constant for the maximum rate of metabolism in PORko-G cells under anoxia” value (shortened to “Target k met0: rate constant”) [2, 4] was 0.09 min⁻¹ and the “Metabolite concentration, fold higher in POR-R cells than HCT-116 WT cells” value [3] was 5.5 fold.

`CCN1CCN(C(=O)c2cc(N(CCBr)CCOS(C)(=O)=O)c(S(C)(=O)=O)cc2N)CC1` [CP-506M, 2-((4-amino-5-(4-ethylpiperazine-1-carbonyl)-2-(methylsulfonyl)phenyl)(2-bromoethyl)amino)ethyl methanesulfonate] was tested, and the “k d M: kill probability rate constant” value [1] was 0.01, the “Target k met0: rate constant” value [2, 4] was 0.1 min⁻¹ and the “Metabolite concentration, fold lower in PORko-G cells than HCT-116 WT cells” value [3] was 4.1 fold.

In the case of `CCN1CCN(C(=O)c2cc(N(CCCl)CCCl)c(S(C)(=O)=O)cc2N)CC1` [CP-506M-Cl2, (2-Amino-5-(bis(2-chloroethyl)amino)-4-(methylsulfonyl)phenyl)(4-ethylpiperazin-1-yl)methanone], the “k d M: kill probability rate constant” value [1] is reported as 0.01, the “Target k met0: rate constant” value ([2]; anoxia, footnote d: assumed equivalent to the measured metabolites or from published PR-104A estimates) is reported as 0.1 ^d min^−1 and the “Metabolite concentration, fold higher in POR-R cells than HCT-116 WT cells” value [3] is reported as 8.6 fold. The “Metabolite concentration, fold lower in PORko-G cells than HCT-116 WT cells” value [3] was 17.7 fold and the “Metabolite production suppressed in POR knockout relative to the POR-overexpressing cell line” value ([3]; anoxic, Figure 3A) was 151 fold.

`CCN1CCN(C(=O)c2cc(N(CCBr)CCOS(C)(=O)=O)c(S(C)(=O)=O)cc2[N+](=O)[O-])CC1` [CP-506, 2-[(2-bromoethyl)-5-[(4-ethyl-1-piperazinyl)carbonyl]-2-(methylsulfonyl)-4-nitroanilino]ethyl methanesulfonate] was tested, and the IC50 ([1]; Homo sapiens, HCT-116, POR-R monolayer, 4 h exposure, <1 ppm O2, read-out: Clonogenic IC50 under anoxia) was 0.8 ± 0.3 µM, the “k d M: kill probability rate constant” value [1] was 0 and the IC50 ([2]; Homo sapiens, HCT-116, PORko-G monolayer, 4 h exposure, <1 ppm O2, read-out: Clonogenic IC50 under anoxia) was 17.1 ± 3.4 µM. The “Target k met0: rate constant” value [2, 4] was 0.0019 min⁻¹ and the “Differential in anoxic sensitivity between PORko-G and POR-R cell lines” value ([2]; monolayer clonogenic endpoint, anoxia) was 22 fold and 20 fold.
